US9302999B2, “Substituted triazoles as herbicides” (E. I. DU PONT DE NEMOURS AND COMPANY, priority 2012, dated 2016)

Assays:
Type in all cases: in vivo
[1] = tested on: japonica rice (ORYSP, Oryza sativa); test: Test G paddy, alone and in combination: japonica rice; settings: evaluated after 14 days
Method: (§1) Seeds of smallflower umbrella sedge (CYPDI, Cyperus difformis) and ducksalad (HETLI, Heteranthera limosa) were sown on the soil surface in two separate quadrants of 11 cm tubs filled with steam pasteurized Tama soil. Simultaneously, plantings of barnyardgrass (ECHCG, Echinochloa crus-galli) and japonica rice (ORYSP, Oryza sativa) were established in separate “plug” flats. Plants were grown in a greenhouse using supplemental lighting to maintain a photoperiod of approximately 16 h; daytime and nighttime temperatures were approximately 27-30° C. and 19-22° C., respectively. After 8 days, barnyardgrass plants were transplanted to one of the remaining quadrants of the tub, and the water level was adjusted to a final depth of 3 cm. Herbicide application timing was targeted at the 2.0 to 2.5 leaf stage and the plants were treated with test chemicals formulated in a non-phytotoxic solvent. Treated plants and controls were maintained in a greenhouse for 14 days, after which time all species were compared to controls and visually evaluated. Plant response ratings are summarized in Tables G1 through G3, and are based on a scale of 0 to 100 where 0 is no effect and 100 is complete control. A dash (-) response means no test result.

[2] = tested on: ducksalad (HETLI, Heteranthera limosa); test: Test G paddy, alone and in combination: ducksalad; settings: evaluated after 14 days
Method: as §1

[3] = tested on: smallflower umbrella sedge (CYPDI, Cyperus difformis); test: Test G paddy, alone and in combination: smallflower umbrella sedge; settings: evaluated after 14 days
Method: as §1

[4] = tested on: morningglory (Ipomoea coccinea); test: Test E pre-/postemergence: morningglory; settings: Preemergence, scale 0 to 100
From the text: (§2) Seeds of plant species selected from corn (Zea mays), soybean (Glycine max), velvetleaf (Abutilon theophrasti), lambsquarters (Chenopodium album), poinsettia, wild (wild poinsettia, Euphorbia heterophylla), pigweed, palmer (palmer pigweed, Amaranthus palmeri), waterhemp (common waterhemp, Amaranthus rudis), smartweed (ladysthumb smartweed, Polygonum persicaria), surinam grass (Brachiaria decumbens), crabgrass, large (large crabgrass, Digitaria sanguinalis), crabgrass, Brazil (Brazilian crabgrass, Digitaria horizontalis), panicum, fall (fall panicum, Panicum dichotomiflorum), foxtail, giant (giant foxtail, Setaria faberii), foxtail, green (green foxtail, Setaria viridis), goosegrass (Eleusine indica), johnsongrass (Sorghum halepense), ragweed (common ragweed, Ambrosia elation), barnyardgrass (Echinochloa crus-galli), sandbur (southern sandbur, Cenchrus echinatus), arrowleaf sida (Sida rhombifolia), ryegrass, Italian (Italian ryegrass, Lolium multiflorum), dayflower, (VA) (Virginia dayflower, Commelina virginica), field bindweed (Convolvulus arvensis), cocklebur (common cocklebur, Xanthium strumarium), morningglory (Ipomoea coccinea), nightshade (eastern black nightshade, Solanum ptycanthum), kochia (Kochia scoparia), nutsedge, yellow (yellow nutsedge, Cyperus esculentus) and beggarticks (hairy beggarticks, Bidens pilosa) were planted into a silt loam soil and treated preemergence with test chemicals formulated in a non-phytotoxic solvent mixture which included a surfactant. At the same time, plants selected from these crop and weed species were planted in pots containing a growing medium comprising spaghnum peat moss, vermiculite, wetting agent and starter nutrients and treated with postemergence applications of some of the test chemicals formulated in the same manner. Plants ranged in height from 2 to 18 cm for postemergence treatments (1- to 4-leaf stage).
(§3) Treated plants and controls were maintained in a greenhouse for 14 to 21 days, after which time all species were compared to controls and visually evaluated. Plant response ratings, summarized in Table E, are based on a scale of 0 to 100 where 0 is no effect and 100 is complete control. A dash (-) response means no test result.

[5] = tested on: barnyardgrass (ECHCG, Echinochloa crus-galli); test: Test G paddy, alone and in combination: barnyardgrass; settings: evaluated after 14 days
Method: as §1

[6] = tested on: dayflower, (VA) (Virginia dayflower, Commelina virginica); test: Test E pre-/postemergence: dayflower, (VA); settings: scale 0 to 100
From the text: as §2, §3

[7] = tested on: Waterhemp; test: Test C preemergence: waterhemp; settings: scale 0 (no effect) to 100 (complete control)
[8] = tested on: waterhemp_RES2 (ALS/HPPD resistant common waterhemp, Amaranthus rudis); test: Test F postemergence: waterhemp_RES2; settings: scale 0 to 100
From the text: (§4) Seeds of plant species selected from corn (Zea mays), soybean (Glycine max), velvetleaf (Abutilon theophrasti), lambsquarters (Chenopodium album), poinsettia, wild (wild poinsettia, Euphorbia heterophylla), pigweed, palmer (palmer pigweed, Amaranthus palmeri), waterhemp (common waterhemp, Amaranthus rudis), surinam grass (Brachiaria decumbens), crabgrass, Brazil (Brazilian crabgrass, Digitaria horizontalis), panicum, fall (fall panicum Panicum dichotomiflorum), crabgrass, large (large crabgrass, Digitaria sanguinalis), foxtail, giant (giant foxtail, Setaria faberii), foxtail, green (green foxtail Setaria viridis), goosegrass (Eleusine indica), ragweed (common ragweed, Ambrosia elatior), barnyardgrass (Echinochloa crus-galli), sandbur (southern sandbur, Cenchrus echinatus), arrowleaf sida (Sida rhombifolia), ryegrass, Italian (Italian ryegrass, Lolium multiflorum), dayflower, VA (Virginia (VA) dayflower, Commelina virginica), field bindweed (Convolvulus arvensis), cocklebur (common cocklebur, Xanthium strumarium), morningglory (Ipomoea coccinea), nightshade (eastern black nightshade, Solanum ptycanthum), kochia (Kochia scoparia), nutsedge, yellow (yellow nutsedge, Cyperus esculentus), johnsongrass (Sorghum halepense), smartweed (ladysthumb smartweed, Polygonum persicaria), and beggarticks (hairy beggarticks, Bidens pilosa), were planted into a silt loam soil and treated preemergence with test chemicals formulated in a non-phytotoxic solvent mixture which included a surfactant. At the same time, plants selected from these crop and weed species and also pigweed (Amaranthus retroflexus), waterhemp_RES1 (ALS/Triazine resistant common waterhemp, Amaranthus rudis) and waterhemp_RES2 (ALS/HPPD resistant common waterhemp, Amaranthus rudis) were planted in pots containing a planting medium comprising spaghnum peat moss, vermiculite, wetting agent and starter nutrients treated with postemergence applications of some of the test chemicals formulated in the same manner. Plants ranged in height from 2 to 18 cm for postemergence treatments (1- to 4-leaf stage).
as §3

[9] = tested on: waterhemp_RES1 (ALS/Triazine resistant common waterhemp, Amaranthus rudis); test: Test F postemergence: waterhemp_RES1; settings: scale 0 to 100
From the text: as §4, §3

## Cc1nn(-c2ccc(F)cc2)nc1Oc1ccnc(C(F)(F)F)c1 [Compound 129, 4-[[2-(4-fluorophenyl)-5-methyl-2H-1,2,3-triazol-4-yl]oxy]-2-(trifluoromethyl)pyridine]
[1]; Rate 16 g/ha
  ORYSP plant response rating (scale of 0 to 100): 0
[1]; Rate 31 g/ha
  ORYSP plant response rating (scale of 0 to 100): 5
[1]; Rate 32 g/ha
  ORYSP plant response rating (scale of 0 to 100): 10
[2]; Rate 16 g/ha
  HETLI plant response rating (scale of 0 to 100): 0
[2]; Rate 31 g/ha
  HETLI plant response rating (scale of 0 to 100): 40
[2]; Rate 32 g/ha
  HETLI plant response rating (scale of 0 to 100): 25
[3]; Rate 16 g/ha
  CYPDI plant response rating (scale of 0 to 100): 0
[3]; Rate 31 g/ha
  CYPDI plant response rating (scale of 0 to 100): 75
[3]; Rate 32 g/ha
  CYPDI plant response rating (scale of 0 to 100): 48
[4]; 8 g ai/ha
  Plant response rating: Morningglory: 0
[4]; 16 g ai/ha
  Plant response rating: Morningglory: 0
[4]; 31 g ai/ha
  Plant response rating: Morningglory: 0
[4]; 62 g ai/ha
  Plant response rating: Morningglory: 40
[4]; 125 g ai/ha
  Plant response rating: Morningglory: 50
[5]; Rate 16 g/ha
  ECHCG plant response rating (scale of 0 to 100): 0
[5]; Rate 31 g/ha
  ECHCG plant response rating (scale of 0 to 100): 15
[5]; Rate 32 g/ha
  ECHCG plant response rating (scale of 0 to 100): 5

## Cc1nn(-c2ccc(F)cc2)nc1Cc1ccnc(C(F)(F)F)c1 [Compound 16, 4-[[2-(4-fluorophenyl)-5-methyl-2H-1,2,3-triazol-4-yl]methyl]-2-(trifluoromethyl)pyridine]
[6]; Preemergence, 8 g ai/ha
  Plant response rating: Dayflower, VA: 0
[6]; Preemergence, 16 g ai/ha
  Plant response rating: Dayflower, VA: 0
[6]; Preemergence, 31 g ai/ha
  Plant response rating: Dayflower, VA: 35
[6]; Preemergence, 62 g ai/ha
  Plant response rating: Dayflower, VA: 50
[6]; Preemergence, 125 g ai/ha
  Plant response rating: Dayflower, VA: 85
[1]; Rate 8 g/ha
  ORYSP plant response rating (scale of 0 to 100): 10
[1]; Rate 16 g/ha
  ORYSP plant response rating (scale of 0 to 100): 15
[2]; Rate 8 g/ha
  HETLI plant response rating (scale of 0 to 100): 0
[2]; Rate 16 g/ha
  HETLI plant response rating (scale of 0 to 100): 60
[3]; Rate 8 g/ha
  CYPDI plant response rating (scale of 0 to 100): 85
[3]; Rate 16 g/ha
  CYPDI plant response rating (scale of 0 to 100): 85
[5]; Rate 8 g/ha
  ECHCG plant response rating (scale of 0 to 100): 25
[5]; Rate 16 g/ha
  ECHCG plant response rating (scale of 0 to 100): 35

## CCOc1nn(-c2ccc(Br)cc2)nc1Cc1ccnc(C(F)(F)F)c1 [Compound 189]
[7]; 16 g ai/ha
  Plant response rating, Waterhemp: 90
[7]; 31 g ai/ha
  Plant response rating, Waterhemp: 98

## Cc1nn(-c2ccc(C(F)(F)F)c(F)c2)nc1Cc1ccnc(C(F)(F)F)c1 [Compound 162]
[8]; 4 g ai/ha
  Plant response rating, Waterhemp, Res2: 75
[8]; 8 g ai/ha
  Plant response rating, Waterhemp, Res2: 90
[8]; 16 g ai/ha
  Plant response rating, Waterhemp, Res2: 90
[8]; 31 g ai/ha
  Plant response rating, Waterhemp, Res2: 95
[8]; 62 g ai/ha
  Plant response rating, Waterhemp, Res2: 100
[9]; 4 g ai/ha
  Plant response rating, Waterhemp, Res1: 70
[9]; 8 g ai/ha
  Plant response rating, Waterhemp, Res1: 90
[9]; 16 g ai/ha
  Plant response rating, Waterhemp, Res1: 90
[9]; 31 g ai/ha
  Plant response rating, Waterhemp, Res1: 95
[9]; 62 g ai/ha
  Plant response rating, Waterhemp, Res1: 95

## Cc1nn(-c2ccc(F)c(F)c2)nc1Oc1ccnc(C(F)(F)F)c1 [Compound 145]
[8]; 125 g ai/ha
  Plant response rating, Waterhemp, Res2: 85
[9]; 125 g ai/ha
  Plant response rating, Waterhemp, Res1: 90

## Cc1nn(-c2ccc(C(F)(F)F)cc2)nc1Cc1ccnc(C(F)(F)F)c1 [Compound 47, 4-[[5-methyl-2-[4-(trifluoromethyl)phenyl]-2H-1,2,3-triazol-4-yl]methyl]-2-(trifluoromethyl)pyridine]
[6]; Postemergence, 250 g ai/ha
  Plant response rating: Dayflower, VA: 30
[6]; Postemergence, 16 g ai/ha
  Plant response rating: Dayflower, VA: 10
[6]; Postemergence, 31 g ai/ha
  Plant response rating: Dayflower, VA: 10
[6]; Postemergence, 62 g ai/ha
  Plant response rating: Dayflower, VA: 20
[6]; Postemergence, 125 g ai/ha
  Plant response rating: Dayflower, VA: 25
[4]; 16 g ai/ha
  Plant response rating: Morningglory: 15
[4]; 31 g ai/ha
  Plant response rating: Morningglory: 30
[4]; 62 g ai/ha
  Plant response rating: Morningglory: 35
[4]; 125 g ai/ha
  Plant response rating: Morningglory: 40
[4]; 250 g ai/ha
  Plant response rating: Morningglory: 65

## CCc1nn(-c2ccc(F)cc2)nc1Oc1ccnc(C(F)(F)F)c1 [Compound 166]
[7]; 31 g ai/ha
  Plant response rating, Waterhemp: 55
